Reference: patent publication US8288375B2, “Fungicidal bicyclic pyrazoles” (E.I. du Pont de Nemours and Company, priority 2007, dated 2012)

Tests used:
Pythium aphanidermatum = test: Test L: bluegrass pythium blight, test suspension sprayed on bluegrass seedlings, disease rating; type: in vivo; conditions: for pest or weed control at 200 ppm / pest or weed control at 40 ppm: Pythium aphanidermatum, 120 h; for pest or weed control at 200 ppm / Test L disease control rating: 200 ppm test suspension; for pest or weed control at 40 ppm: 40 ppm test suspension (*);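 for all read-outs here: 200 ppm unless marked * meaning 40 ppm or ** meaning 10 ppm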
[1] = tested on: Colletotrichum orbiculare; test: Test F: cucumber Colletotrichum anthracnose, test suspension sprayed on cucumber seedlings, disease rating; type: in vivo; conditions: 200 ppm test suspension; for pest or weed control at 200 ppm: Colletotrichum orbiculare, 144 h
Phytophthora infestans = test: whole plant or invertebrate; type: in vivo; conditions: for pest or weed control at 200 ppm / pest or weed control at 40 ppm: Phytophthora infestans, in Solanum lycopersicum, 120 h, read-out: Test J disease control rating; for Test J disease control rating: 200 ppm test suspension
Botrytis cinerea = test: Test H: tomato Botrytis, test suspension sprayed on tomato seedlings, disease rating; type: in vivo; conditions: 200 ppm test suspension; for pest or weed control at 200 ppm: Botrytis cinerea, 120 h
Fusarium graminearum = test: whole plant or invertebrate; type: in vivo; conditions: for pest or weed control at 200 ppm / pest or weed control at 40 ppm: Fusarium graminearum, in Triticum aestivum, 192 h, read-out: Test C disease control rating
Alternaria solani = test: Test G: tomato early blight, test suspension sprayed on seedlings, disease rating; type: in vivo; conditions: Alternaria solani, 168 h; for pest or weed control at 40 ppm: 40 ppm test suspension (*); for pest or weed control at 200 ppm: 200 ppm test suspension;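 for all read-outs here: 200 ppm unless marked * meaning 40 ppm or ** meaning 10 ppm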
[2] = tested on: Erysiphe graminis f. sp. tritici; test: Test A: wheat powdery mildew, test suspension sprayed on wheat seedlings, disease rating; type: in vivo; conditions: 200 ppm test suspension, 100 = 100% disease control, 0 = no control; for pest or weed control at 200 ppm: Blumeria graminis, 192 h
Septoria tritici = test: Test E: wheat leaf blotch, test suspension sprayed on wheat seedlings, disease rating; type: in vivo; conditions: for pest or weed control at 200 ppm / pest or weed control at 40 ppm: Zymoseptoria tritici, 504 h; for pest or weed control at 200 ppm / Test E disease control rating: 200 ppm test suspension; for pest or weed control at 40 ppm: 40 ppm test suspension (*);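 for all read-outs here: 200 ppm unless marked * meaning 40 ppm or ** meaning 10 ppm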
[3] = tested on: Puccinia recondite f sp. tritici; test: Test B: wheat leaf rust, test suspension sprayed on wheat seedlings, disease rating; type: in vivo; conditions: for pest or weed control at 200 ppm / pest or weed control at 40 ppm: Puccinia, 192 h; for pest or weed control at 200 ppm / Test B disease control rating: 200 ppm test suspension; for pest or weed control at 40 ppm: 40 ppm test suspension (*);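 for all read-outs here: 200 ppm unless marked * meaning 40 ppm or ** meaning 10 ppm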
Septoria nodorum = test: Test D: wheat glume blotch, test suspension sprayed on wheat seedlings, disease rating; type: in vivo; conditions: 200 ppm test suspension; for pest or weed control at 200 ppm: Parastagonospora nodorum, 216 h
Rhizoctonia oryzae = test: Test I: turf brown patch, test suspension sprayed on creeping bent grass seedlings, disease rating; type: in vivo; conditions: 200 ppm test suspension; for pest or weed control at 200 ppm: Waitea circinata, in Agrostis stolonifera, 120 h
Plasmopara viticola = test: Test K: grape downy mildew, grape seedlings inoculated and then sprayed, disease rating; type: in vivo; conditions: 200 ppm test suspension
Sclerotinia sclerotiorum = test: Test M: cucumber white mold, test suspension sprayed on cucumber seedlings, disease rating; type: in vivo; conditions: 200 ppm test suspension
From the text: General protocol for preparing test suspensions for Tests A-M: The test compounds were first dissolved in acetone in an amount equal to 3% of the final volume and then suspended at the desired concentration (in ppm) in acetone and purified water (50/50 mix) containing 250 ppm of the surfactant Trem® 014 (polyhydric alcohol esters). The resulting test suspensions were then used in Tests A-M. Spraying a 200 ppm test suspension to the point of run-off on the test plants was the equivalent of an application rate of 500 g/ha.
The test suspension was sprayed to the point of run-off on cucumber seedlings. The following day the seedlings were inoculated with a spore suspension of Sclerotinia sclerotiorum (the causal agent of cucumber white mold) and incubated in saturated atmosphere at 24° C. for 72 h, and then moved to a growth chamber at 24° C. for 3 additional days, after which time disease ratings were made.
Results for Tests A-M are given in Table A. In the table, a rating of 100 indicates 100% disease control and a rating of 0 indicates no disease control (relative to the controls). A dash (-) indicates no test results. All results are for 200 ppm test suspension except where followed by “*” which indicates 40 ppm or by “**” which indicates 10 ppm.

SMILES	pest or weed control at 200 ppm (Pythium aphanidermatum)	pest or weed control at 200 ppm [1]	pest or weed control at 200 ppm (Phytophthora infestans)	pest or weed control at 200 ppm (Botrytis cinerea)	pest or weed control at 200 ppm (Fusarium graminearum)	melting point	pest or weed control at 40 ppm (Alternaria solani)	pest or weed control at 200 ppm [2]	pest or weed control at 200 ppm (Septoria tritici)	pest or weed control at 200 ppm [3]	pest or weed control at 200 ppm (Septoria nodorum)	pest or weed control at 200 ppm (Rhizoctonia oryzae)	Test K disease control rating (Plasmopara viticola)	further results
CC(C)Nc1nccc(-c2c(-c3ccc(F)cc3)nn3c2CCCC3)n1 [Compound 8, 4-[2-(4-fluorophenyl)-4,5,6,7-tetrahydropyrazolo[1,5-a]pyridin-3-yl]-N-(1-methylethyl)-2-pyrimidinamine]	100%	99%	100%	97%	100%	178 to 180 °C	99%	81%	100%	99%	100%	62%	–	–
Fc1ccc(-c2nn3c(c2-c2ccnc(NC4CC4)n2)CCCC3)cc1 [Compound 12, N-cyclopropyl-4-[2-(4-fluorophenyl)-4,5,6,7-tetrahydropyrazolo[1,5-a]pyridin-3-yl]-2-pyrimidinamine]	100%	94%	100%	98%	100%	164 to 165 °C	–	97%	100%	99%	99%	64%	0%	–
CC(C)Nc1nccc(-c2c(-c3ccc(F)cc3)nn3c2COCC3)n1 [Compound 107, 4-[2-(4-fluorophenyl)-6,7-dihydro-4H-pyrazolo[5,1-c][1,4]oxazin-3-yl]-N-(1-methylethyl)-2-pyrimidinamine]	100%	99%	100%	90%	99%	144 to 146 °C	99%	92%	100%	99%	99%	80%	–	–
CC(CO)Nc1nccc(-c2c(-c3ccc(F)cc3)nn3c2COCC3)n1 (centres unmarked) [Compound 108, 2-[[4-[2-(4-fluorophenyl)-6,7-dihydro-4H-pyrazolo[5,1-c][1,4]oxazin-3-yl]-2-pyrimidinyl]amino]-1-propanol]	100%	–	77%	–	98%	124 to 126 °C	–	43%	99%	99%	87%	–	–	–
CC(C)Nc1nccc(-c2c(-c3ccc(F)cc3)nn3c2CCOC3)n1 [Compound 112, 4-[2-(4-fluorophenyl)-4,5-dihydro-7H-pyrazolo[1,5-c][1,3]oxazin-3-yl]-N-(1-methylethyl)-2-pyrimidinamine]	99%	–	99%	–	100%	167 to 169 °C	–	0%	99%	95%	93%	–	–	–
CC(C)Nc1nccc(-c2c(-c3ccccc3)nn3c2COCC3)n1 [Compound 116, 4-(6,7-dihydro-2-phenyl-4H-pyrazolo[5,1-c][1,4]oxazin-3-yl)-N-(1-methylethyl)-2-pyrimidinamine]	100%	–	95%	–	100%	185 to 187 °C	–	90%	91%	93%	92%	–	–	–
c1ccc(-c2nn3c(c2-c2ccnc(NC4CC4)n2)COCC3)cc1 [Compound 117, N-cyclopropyl-4-(6,7-dihydro-2-phenyl-4H-pyrazolo[5,1-c][1,4]oxazin-3-yl)-2-pyrimidinamine]	100%	–	95%	–	99%	186 to 189 °C	–	86%	98%	97%	98%	–	–	–
c1cc(-c2c(-c3ccsc3)nn3c2COCC3)nc(NC2CC2)n1 [Compound 121, N-cyclopropyl-4-[6,7-dihydro-2-(3-thienyl)-4H-pyrazolo[5,1-c][1,4]oxazin-3-yl]-2-pyrimidinamine]	99%	15%	97%	66%	99%	182 to 184 °C	–	0%	93%	94%	84%	–	–	pest or weed control at 200 ppm (Alternaria solani): 89%
Fc1ccc(-c2nn3c(c2-c2ccnc(NC4CC4)n2)CCCN3)cc1 [Compound 131, N-cyclopropyl-4-[2-(4-fluorophenyl)-4,5,6,7-tetrahydropyrazolo[1,5-b]pyridazin-3-yl]-2-pyrimidinamine]	100%	58%	97%	9%	100%	184 to 187 °C	–	96%	–	100%	87%	57%	0%	pest or weed control at 200 ppm (Alternaria solani): 81%
CC(CO)Nc1nccc(-c2c(-c3ccc(F)cc3)nn3c2CCCN3)n1 (centres unmarked) [Compound 132, 2-[[4-[2-(4-fluorophenyl)-4,5,6,7-tetrahydropyrazolo[1,5-b]pyridazin-3-yl]-2-pyrimidinyl]amino]-1-propanol]	–	0%	–	0%	–	165 to 167 °C	0%	66%	–	–	0%	0%	–	pest or weed control at 40 ppm (Pythium aphanidermatum): 100%; pest or weed control at 40 ppm (Phytophthora infestans): 65%; pest or weed control at 40 ppm (Fusarium graminearum): 0%; pest or weed control at 40 ppm (Septoria tritici): 0%; pest or weed control at 40 ppm [3]: 88%
COC(=O)N1CCn2nc(-c3ccc(F)cc3)c(-c3ccnc(NC(C)C)n3)c2C1 [Compound 138, methyl 2-(4-fluorophenyl)-6,7-dihydro-3-[2-[(1-methylethyl)amino]-4-pyrimidinyl]pyrazolo[1,5-a]pyrazine-5(4H)-carboxylate]	–	–	–	68%	–	88 to 89 °C	99%	0%	–	–	99%	0%	–	pest or weed control at 40 ppm (Pythium aphanidermatum): 99%; pest or weed control at 40 ppm (Phytophthora infestans): 88%; pest or weed control at 40 ppm (Fusarium graminearum): 86%; pest or weed control at 40 ppm (Septoria tritici): 83%; pest or weed control at 40 ppm [3]: 98%
COCC(C)Nc1nccc(-c2c(-c3ccc(F)cc3)nn3c2CCCC3)n1 (centres unmarked) [compound 1]	–	–	–	–	–	–	–	–	–	–	–	–	0%	Test L disease control rating (Pythium aphanidermatum): 100%; Test F disease control rating [1]: 96%; Test J disease control rating (Phytophthora infestans): 100%; Test H disease control rating (Botrytis cinerea): 91%; Test C disease control rating (Fusarium graminearum; 200 ppm test suspension): 100%; Test A disease control rating [2]: 94%; Test E disease control rating (Septoria tritici): 98%; Test M disease control rating (Sclerotinia sclerotiorum): 99%; Test B disease control rating [3]: 100%; Test D disease control rating (Septoria nodorum): 98%; Test I disease control rating (Rhizoctonia oryzae): 41%
CCC(C)Nc1nccc(-c2c(-c3ccc(F)cc3)nn3c2CCCC3)n1 (centres unmarked) [compound 2]	–	–	–	–	–	–	–	–	–	–	–	–	0%	Test L disease control rating (Pythium aphanidermatum): 100%; Test F disease control rating [1]: 85%; Test J disease control rating (Phytophthora infestans): 47%; Test H disease control rating (Botrytis cinerea): 92%; Test A disease control rating [2]: 0%; Test E disease control rating (Septoria tritici): 97%; Test M disease control rating (Sclerotinia sclerotiorum): 0%; Test B disease control rating [3]: 98%; Test D disease control rating (Septoria nodorum): 98%; Test I disease control rating (Rhizoctonia oryzae): 31%
